The values that follow come from ChEMBL document CHEMBL1201862, “PubChem BioAssay data set” (2004).

Values joined by “and” are separate entries in the source; they are usually repeats but may differ in a detail not shown here. Equal values may be shown once.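 48-hour exposure; five concentrations; linearly interpolated endpoints. Here, GI50 denotes the concentration required for 50% inhibition of growth.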 Active and inactive are the calls of the source. Rule as the data show it: active = GI50 up to about 1.1 µM and inactive = higher. Bounds are passed on as bounds.

Some test systems named below: MDA-N; 786-0; CCRF-CEM; HOP-62; U-251; SNB-19; SF-539; Hs-578T; SW-620; Malme-3M; UACC-62; SN12C; ACHN; HCT-15; LOX IMVI; M14; UACC-257; NCI-H226; OVCAR-8; SNB-75.
What all share (assay): NCI anticancer screen, dose series, 48 h

Take `CNc1ncnc2c1cnn2CCCCO`: the GI50 in the test with MDA-N, in the test with 786-0, in the test on CCRF-CEM, in the test with HOP-62, in the test with U-251 and in the test with SNB-19 was > 100 µM (inactive) throughout. The GI50 in the test on SF-539, in the test on Hs-578T, in the test on SW-620, in the test with Malme-3M, in the test on UACC-62 and with SN12C was > 100 µM (inactive) throughout. Moreover, the GI50 in the test with ACHN was > 100 µM (inactive); in the test on HCT-15, greater than 100 µM; in the test on LOX IMVI, > 100 µM (inactive); in the test with M14, > 100 µM (inactive); with UACC-257, > 100 µM (inactive); in the test with NCI-H226 it was > 100 µM (inactive).
For the compound `Nc1ccc(Oc2ccc(C34CC5CC6C3CC3CC4C(C5)C6(c4ccc(Oc5ccc(N)cc5)cc4)C3)cc2)cc1`, the GI50 was 0.334 µM (active) in the test on MDA-N; 13.4 µM (inactive) in the test with 786-0; 15.4 µM (inactive) in the test on CCRF-CEM; 18.3 µM (inactive) in the test with HOP-62; 2.9 µM (inactive) with U-251; 9.53 µM (inactive) in the test with SNB-19. In addition, the GI50 was 25.4 µM (inactive) in the test on Hs-578T; 19.7 µM (inactive) in the test with SW-620; 0.216 µM (active) in the test with Malme-3M; 2.74 µM (inactive) with UACC-62; 25.1 µM (inactive) in the test on SN12C; 3.17 µM (inactive) in the test on ACHN. Further, the GI50 is 21.8 µM in the test with HCT-15; 20 µM (inactive) in the test with LOX IMVI; 31.9 µM (inactive) in the test on OVCAR-8; 0.583 µM (active) in the test on M14; 0.329 µM (active) in the test with UACC-257; 22.8 µM (inactive) in the test with NCI-H226.
With `COC1OC(COC(=O)NCCCCC(=O)C(F)(F)C(F)(F)C(F)(F)C(F)(F)C(F)(F)C(F)(F)C(F)(F)F)C(O)C(O)C1O` (stereo unspecified), the GI50 in the test with MDA-N was 24 µM (inactive) and 26.4 µM (inactive); in the test on 786-0, 16.4 µM (inactive) and 16.5 µM (inactive); with HOP-62, 15 µM (inactive) and 16.2 µM (inactive); in the test on U-251 it was 19.3 µM (inactive) and 11.9 µM (inactive); in the test with SNB-75, 14.4 µM (inactive) and 15.8 µM (inactive); in the test on SNB-19, 17.8 µM (inactive) and 17.9 µM (inactive). Besides, the GI50 in the test with SF-539 is 18 µM (inactive) and 15.5 µM (inactive); in the test on Hs-578T, 15.2 µM (inactive) and 17.7 µM (inactive); with SW-620 it was 17.1 µM (inactive) and 15.8 µM (inactive); with Malme-3M, 22.8 µM (inactive) and 20.1 µM (inactive); in the test on UACC-62, 13.7 µM (inactive) and 14.4 µM (inactive); in the test on SN12C, 19.6 µM (inactive) and 21.4 µM (inactive). Besides, the GI50 with ACHN is 15.6 µM (inactive) and 16.4 µM (inactive); with HCT-15, 18.5 µM and 19.4 µM; in the test with LOX IMVI, 14.2 µM (inactive) and 15.9 µM (inactive); in the test with M14, 14.8 µM (inactive) and 16 µM (inactive); with UACC-257, 16.9 µM (inactive) and 16.6 µM (inactive).
In the case of `O=C1OC(C2(O)OC(=O)c3ccccc32)c2ccccc21` (stereo unspecified), the GI50 in the test on MDA-N, with 786-0, in the test on HOP-62, in the test with U-251, in the test on SNB-75 and in the test on SNB-19 was > 100 µM (inactive) each time. Also, the GI50 in the test on SF-539, with Hs-578T, with SW-620, with UACC-62, in the test on SN12C and with ACHN was > 100 µM (inactive) each time. The GI50 with HCT-15 was greater than 100 µM; with LOX IMVI, > 100 µM (inactive); in the test on OVCAR-8 it was > 100 µM (inactive); in the test on M14, > 100 µM (inactive); in the test on UACC-257, > 100 µM (inactive); in the test with NCI-H226, > 100 µM (inactive).
For `CCCCCCCCCCC(O)C1CCC(C2CCC(C(O)CCCCC(O)CCCCCC(O)CC3=CC(C)OC3=O)O2)O1` (stereo unspecified), the GI50 in the test on MDA-N was 3.86 µM (inactive); in the test with 786-0, > 25 µM (inactive); in the test on HOP-62, > 25 µM (inactive); in the test with U-251, > 25 µM (inactive); in the test on SNB-75 it was 5.16 µM (inactive); in the test with SNB-19, > 25 µM (inactive). For the same compound, the GI50 with SF-539 is > 25 µM (inactive); with Hs-578T, 4.75 µM (inactive); in the test on SW-620, > 25 µM (inactive); in the test on Malme-3M, > 25 µM (inactive); with UACC-62, 1.2 µM (inactive); with SN12C, 9.48 µM (inactive). Also, the GI50 in the test on ACHN is > 25 µM (inactive); with HCT-15, greater than 25 µM; with LOX IMVI it was 2.69 µM (inactive); in the test with OVCAR-8 it was 4.51 µM (inactive); with M14 it was > 25 µM (inactive); in the test with UACC-257, 2.12 µM (inactive). Further, the GI50 in the test on NCI-H226 is 3.82 µM (inactive).
With `Cc1c(CCCl)c(Cl)n2c(nc3ccccc32)c1C#N`, the GI50 was 0.826 µM (active) in the test with MDA-N; 0.463 µM (active) in the test with 786-0; 0.045 µM (active) in the test with CCRF-CEM; 2 µM (inactive) in the test on HOP-62; 0.986 µM (active) in the test with U-251; 3.38 µM (inactive) in the test on SNB-75. The GI50 was 1.89 µM (inactive) in the test on SNB-19; 0.681 µM (active) with SF-539; 0.161 µM (active) in the test on SW-620; 1.26 µM (inactive) in the test with Malme-3M; 1.02 µM (active) in the test with UACC-62; 0.423 µM (active) in the test with SN12C. Moreover, the GI50 was 0.836 µM (active) with ACHN; 0.644 µM in the test on HCT-15; 0.281 µM (active) with LOX IMVI; 1.25 µM (inactive) with OVCAR-8; 1.14 µM (inactive) in the test with M14; 1.44 µM (inactive) with UACC-257. In the test with NCI-H226, the GI50 was 1.38 µM (inactive).
For the compound `CCN1C(Cl)=NS(=O)(=O)c2ccccc21`, the GI50 in the test with MDA-N is 29.1 µM (inactive); in the test on 786-0, 19.3 µM (inactive); in the test on CCRF-CEM it was 3.9 µM (inactive); with HOP-62 it was 25.2 µM (inactive); in the test on U-251, 62.1 µM (inactive); with SNB-19 it was 35.5 µM (inactive). Further, the GI50 in the test on SF-539 is 15.9 µM (inactive); with Hs-578T it was 36.9 µM (inactive); in the test on SW-620, 28.1 µM (inactive); with UACC-62 it was 9.06 µM (inactive); with SN12C, 18.6 µM (inactive); with ACHN it was 16.5 µM (inactive). The GI50 was 9.86 µM in the test on HCT-15; 15.7 µM (inactive) in the test with LOX IMVI; 28.3 µM (inactive) in the test with OVCAR-8; 14.9 µM (inactive) with M14; 28 µM (inactive) with UACC-257; 21.6 µM (inactive) with NCI-H226.
Regarding `Cc1cc(O)c(C(C)C)cc1/N=C/c1ccccc1O`, the GI50 in the test with MDA-N was 3.72 µM (inactive); in the test on 786-0 it was 5.73 µM (inactive); in the test on CCRF-CEM, 0.0242 µM (active); in the test with HOP-62, 11.7 µM (inactive); in the test with U-251, 3.55 µM (inactive); with SNB-19, 17.5 µM (inactive). Also, the GI50 in the test on SF-539 was 30.8 µM (inactive); in the test with Hs-578T it was 8.73 µM (inactive); with SW-620, 1.98 µM (inactive); in the test on Malme-3M, 14.7 µM (inactive); in the test with UACC-62, 8.91 µM (inactive); in the test on SN12C, 4.54 µM (inactive). The GI50 in the test with ACHN is 11.5 µM (inactive); with HCT-15 it was 3.97 µM; with LOX IMVI it was 3.13 µM (inactive); in the test on OVCAR-8 it was 1.8 µM (inactive); in the test with M14, 15.4 µM (inactive); in the test on UACC-257, 9.35 µM (inactive). The GI50 in the test on NCI-H226 is 5.52 µM (inactive).
As for `O=C(O)CNc1ncc2c(n1)-c1ccccc1OC2`, the GI50 with MDA-N, in the test with 786-0, in the test on CCRF-CEM, in the test with HOP-62, in the test on U-251 and with SNB-75 was > 100 µM (inactive) throughout. The GI50 in the test on SNB-19, in the test on SF-539, in the test on Hs-578T, in the test with SW-620, in the test on Malme-3M and in the test on UACC-62 was > 100 µM (inactive) throughout. In addition, the GI50 in the test on SN12C is > 100 µM (inactive); with ACHN it was > 100 µM (inactive); with HCT-15 it was greater than 100 µM; with LOX IMVI it was > 100 µM (inactive); in the test with OVCAR-8, > 100 µM (inactive); in the test with M14 it was > 100 µM (inactive). In addition, in the test on UACC-257, the GI50 was > 100 µM (inactive).
As to `CCc1ccccc1NC(=O)C(=O)CC(=O)c1sc(Nc2ccccc2Cl)nc1C`, the GI50 in the test with MDA-N is 28.8 µM (inactive); in the test with 786-0, 27.7 µM (inactive); in the test on CCRF-CEM, 18 µM (inactive); in the test with HOP-62, 31.6 µM (inactive); in the test with U-251 it was 32.5 µM (inactive); with SNB-19 it was 39.1 µM (inactive). The GI50 in the test with SF-539 was 24.4 µM (inactive); with Hs-578T, 46.5 µM (inactive); with SW-620 it was 25.6 µM (inactive); in the test on UACC-62, > 100 µM (inactive); in the test on SN12C, 42.7 µM (inactive); in the test with ACHN it was 30.5 µM (inactive). Also, the GI50 is 30.6 µM in the test on HCT-15; 19.7 µM (inactive) in the test on LOX IMVI; 35.1 µM (inactive) in the test with OVCAR-8; 27.7 µM (inactive) with M14; 43.8 µM (inactive) with UACC-257; 29 µM (inactive) in the test on NCI-H226.
`OC(Cc1cccc2ccccc12)CN1CCC(c2ccccc2)CC1` (stereo unspecified): the GI50 is 14.3 µM (inactive) in the test on MDA-N; 15 µM (inactive) with 786-0; 18.5 µM (inactive) in the test on CCRF-CEM; 15.8 µM (inactive) in the test with HOP-62; 13.4 µM (inactive) with U-251; 12.3 µM (inactive) in the test on SNB-75. Further, the GI50 with SNB-19 is 13 µM (inactive); in the test with SF-539, 17.3 µM (inactive); in the test on Hs-578T it was 15.8 µM (inactive); in the test with SW-620, 15 µM (inactive); in the test with UACC-62 it was 15.3 µM (inactive); in the test on SN12C it was 16.5 µM (inactive). The GI50 in the test with ACHN was 17.1 µM (inactive); in the test on HCT-15, 14.5 µM; with LOX IMVI it was 15.5 µM (inactive); with OVCAR-8, 16.8 µM (inactive); with M14 it was 13.8 µM (inactive); in the test on UACC-257 it was 3.72 µM (inactive).
